Test results: US12258329B2 (Merck Sharp & Dohme LLC, priority 2018, dated 2025)

Each molecule was assayed on infected PBMCs (VSV-G pseudotyped HIV virus VSV-G/pNLG1-P2A-ΔEnv) (assay: cells). Settings: Homo sapiens, PBMC, read-out: TACK EC50.
Assay type: cell-based, human

Molecule	EC50 [nM]
Cc1nc(C)c(Cn2cnc(C(F)(F)CF)c(Oc3cc(C(F)F)cc(C#N)c3C)c2=O)c(=O)[nH]1 [Example 5, 5-(difluoromethyl)-3-((1-((2,6-dimethyl-4-oxo-4,5-dihydropyrimidin-5-yl)methyl)-6-oxo-4-(1,1,2-trifluoroethyl)-1,6-dihydropyrimidin-5-yl)oxy)-2-methylbenzonitrile]	187
Cc1nc(C)c(Cn2cnc(C(F)(F)C(F)(F)F)c(Oc3cccc(C#N)c3C)c2=O)c(=O)[nH]1 [Example 74, 3-((1-((2,4-dimethyl-6-oxo-1,6-dihydropyrimidin-5-yl)methyl)-6-oxo-4-(perfluoroethyl)-1,6-dihydropyrimidin-5-yl)oxy)-2-methylbenzonitrile]	484
Cc1cc(C#N)c(Cl)c(Oc2c(C(F)(F)C(F)F)ncn(Cc3c(C)nc(C)[nH]c3=O)c2=O)c1 [Example 68, 2-chloro-3-((1-((2,4-dimethyl-6-oxo-1,6-dihydropyrimidin-5-yl)methyl)-6-oxo-4-(1,1,2,2-tetrafluoroethyl)-1,6-dihydropyrimidin-5-yl)oxy)-5-methylbenzonitrile]	478
Cc1nc(COc2ncccn2)[nH]c(=O)c1Cn1cnc(C(C)(F)F)c(Oc2cc(C(F)F)cc(C#N)c2C)c1=O [Example 25, 3-((4-(1,1-difluoroethyl)-1-((4-methyl-6-oxo-2-((pyrimidin-2-yloxy)methyl)-1,6-dihydropyrimidin-5-yl)methyl)-6-oxo-1,6-dihydropyrimidin-5-yl)oxy)-5-(difluoromethyl)-2-methylbenzonitrile]	353
Cc1nc(C)c(Cn2cnc(C(C)(F)F)c(Oc3c(C)cc(C#N)cc3C(F)(F)F)c2=O)c(=O)[nH]1 [Example 16, 4-((4-(1,1-difluoroethyl)-1-((4-hydroxy-2,6-dimethylpyrimidin-5-yl)methyl)-6-oxo-1,6-dihydropyrimidin-5-yl)oxy)-3-methyl-5-(trifluoromethyl)benzonitrile]	199
Cc1nc(CO)[nH]c(=O)c1Cn1cnc(C(F)(F)C(F)F)c(Oc2cc(Cl)cc(C#N)c2F)c1=O [Example 45, 5-chloro-2-fluoro-3-((1-((2-(hydroxymethyl)-4-methyl-6-oxo-1,6-dihydropyrimidin-5-yl)methyl)-6-oxo-4-(1,1,2,2-tetrafluoroethyl)-1,6-dihydropyrimidin-5-yl)oxy)benzonitrile]	257
Cc1nc(C)c(Cn2cnc(C(F)(F)C(F)F)c(Oc3cc(C(F)F)cc(C#N)c3C)c2=O)c(=O)[nH]1 [Example 66, 5-(difluoromethyl)-3-((1-((2,4-dimethyl-6-oxo-1,6-dihydropyrimidin-5-yl)methyl)-6-oxo-4-(1,1,2,2-tetrafluoroethyl)-1,6-dihydropyrimidin-5-yl)oxy)-2-methylbenzonitrile]	262
COC(=O)CCc1nc(C)c(Cn2cnc(C(F)(F)C(F)(F)F)c(Oc3cc(Cl)cc(C#N)c3F)c2=O)c(=O)[nH]1 [Example 56, Methyl 3-(5-((5-(5-chloro-3-cyano-2-fluorophenoxy)-6-oxo-4-(perfluoroethyl)pyrimidin-1 (6H)-yl)methyl)-4-methyl-6-oxo-1,6-dihydropyrimidin-2-yl)propanoate]	161
Cc1nc(C)c(Cn2cnc(C(C)F)c(Oc3cc(C(F)F)cc(C#N)c3C)c2=O)c(=O)[nH]1 (single isomer, unassigned) [Example 28]	208
Cc1nc(C)c(Cn2cnc(C(F)(F)C(F)(F)F)c(Oc3cc(Cl)cc(C#N)c3Cl)c2=O)c(=O)[nH]1 [Example 80, 2,5-dichloro-3-((1-((2,4-dimethyl-6-oxo-1,6-dihydropyrimidin-5-yl)methyl)-6-oxo-4-(perfluoroethyl)-1,6-dihydropyrimidin-5-yl)oxy)benzonitrile]	340
Cc1ncc(Cn2cnc(C(F)(F)C(F)(F)F)c(Oc3cc(C(F)F)cc(C#N)c3C)c2=O)c(=O)[nH]1 [Example 67, 5-(difluoromethyl)-2-methyl-3-((1-((2-methyl-6-oxo-1,6-dihydropyrimidin-5-yl)methyl)-6-oxo-4-(perfluoroethyl)-1,6-dihydropyrimidin-5-yl)oxy)benzonitrile]	174
Cc1nc(C(C)O)[nH]c(=O)c1Cn1cnc(C(F)(F)C(F)F)c(Oc2cc(C(F)F)cc(C#N)c2C)c1=O (single isomer, unassigned) [Example 53, 5-(difluoromethyl)-3-((1-((2-(1-hydroxyethyl)-4-methyl-6-oxo-1,6-dihydropyrimidin-5-yl)methyl)-6-oxo-4-(1,1,2,2-tetrafluoroethyl)-1,6-dihydropyrimidin-5-yl)oxy)-2-methylbenzonitrile]	392
Cc1nc(C)c(Cn2cnc(C(F)(F)F)c(Oc3cc(Br)cc(C#N)c3Cl)c2=O)c(=O)[nH]1 [Example 89, 5-bromo-2-chloro-3-((1-((2,4-dimethyl-6-oxo-1,6-dihydro-pyrimidin-5-yl)methyl)-6-oxo-4-(trifluoromethyl)-1,6-dihydropyrimidin-5-yl)oxy) benzonitrile]	434
Cc1nc(C)c(Cn2cnc(C(C)(F)F)c(Oc3cc(C(F)F)cc(C#N)c3F)c2=O)c(=O)[nH]1 [Example 15, 3-((4-(1,1-difluoroethyl)-1-((2,4-dimethyl-6-oxo-1,6-dihydropyrimidin-5-yl)methyl)-6-oxo-. 1,6-dihydropyrimidin-5-yl)oxy)-5-(difluoromethyl)-2-fluorobenzonitrile]	245
Cc1nc(CF)c(Cn2cnc(C(F)(F)C(F)(F)F)c(Oc3cc(C(F)F)cc(C#N)c3C)c2=O)c(=O)[nH]1 [Example 64, 5-(difluoromethyl)-3-((1-((4-(fluoromethyl)-2-methyl-6-oxo-1,6-dihydropyrimidin-5-yl)methyl)-6-oxo-4-(perfluoroethyl)-1,6-dihydropyrimidin-5-yl)oxy)-2-methylbenzonitrile]	162
COc1c(C#N)cc(C(F)F)cc1Oc1c(C(C)(F)F)ncn(Cc2c(C)nc(C)[nH]c2=O)c1=O [Example 9, 3-((4-(1,1-difluoroethyl)-1-((2,4-dimethyl-6-oxo-1,6-dihydropyrimidin-5-y1)methyl)-6-oxo-1,6-dihydropyrimidin-5-yl)oxy)-5-(difluoromethyl)-2-methoxybenzonitrile]	287
Cc1c(C#N)cc(C(F)F)cc1Oc1c(C(F)(F)C(F)F)ncn(Cc2cnc(N)[nH]c2=O)c1=O [Example 57, 3-((1-((2-amino-6-oxo-1,6-dihydropyrimidin-5-yl)methyl)-6-oxo-4-(1,1,2,2-tetrafluoroethyl)-1,6-dihydropyrimidin-5-yl)oxy)-5-(difluoromethyl)-2-methylbenzonitrile]	493
Cc1nc(C)c(Cn2cnc(C(C)F)c(Oc3cc(Cl)cc(C#N)c3Cl)c2=O)c(=O)[nH]1 (single isomer, unassigned) [Example 34, (S) or (R)-2,5-dichloro-3-((1-((2,4-dimethyl-6-oxo-1,6-dihydropyrimidin-5-yl)methyl)-4-(1-fluoroethyl)-6-oxo-1,6-dihydropyrimidin-5-yl)oxy)benzonitrile]	474
Cc1cc(C#N)c(F)c(Oc2c(C(F)(F)C(F)(F)F)ncn(Cc3c(C)nc(C)[nH]c3=O)c2=O)c1 [Example 93, 3-((1-((2,4-dimethyl-6-oxo-1,6-dihydropyrimidin-5-yl)methyl)-6-oxo-4-(perfluoroethyl)-1,6-dihydropyrimidin-5-yl)oxy)-2-fluoro-5-methylbenzonitrile]	172
Cc1nc(C)c(Cn2cnc(C(F)(F)C(F)F)c(Oc3cc(Br)cc(C#N)c3)c2=O)c(=O)[nH]1 [Example 7, 3-bromo-5-((1-((2,4-dimethyl-6-oxo-1,6-dihydropyrimidin-5-y1)methyl)-6-oxo-4-(1,1,2,2-tetrafluoroethyl)-1,6-dihydropyrimidin-5-yl)oxy)benzonitrile]	353
Cc1cc(C#N)c(F)c(Oc2c(C(F)(F)C(F)F)ncn(Cc3c(C)nc(C)[nH]c3=O)c2=O)c1 [Example 40, 3-((1-((2,4-dimethyl-6-oxo-1,6-dihydropyrimidin-5-yl)methyl)-6-oxo-4-(1,1,2,2-tetrafluoroethyl)-1,6-dihydropyrimidin-5-yl)oxy)-2-fluoro-5-methylbenzonitrile]	198
CCc1cc(C#N)c(F)c(Oc2c(C(F)(F)C(F)F)ncn(Cc3c(C)nc(C)[nH]c3=O)c2=O)c1 [Example 42, 3-((1-((2,4-dimethyl-6-oxo-1,6-dihydropyrimidin-5-yl)methyl)-6-oxo-4-(1,1,2,2-tetrafluoroethyl)-1,6-dihydropyrimidin-5-yl)oxy)-5-ethyl-2-fluorobenzonitrile]	308
Cc1nc(C)c(Cn2cnc(C(F)(F)C(F)(F)F)c(Oc3cccc(C#N)c3F)c2=O)c(=O)[nH]1 [Example 85, 3-((1-((2,4-dimethyl-6-oxo-1,6-dihydropyrimidin-5-yl)methyl)-6-oxo-4-(perfluoroethyl)-1,6-dihydropyrimidin-5-yl)oxy)-2-fluorobenzonitrile]	441
Cc1nc(C)c(Cn2cnc(C(C)(F)F)c(Oc3c(C)cc(C#N)cc3C)c2=O)c(=O)[nH]1 [Example 11, 4-((4-(1,1-difluoroethyl)-1-((2,4-dimethyl-6-oxo-1,6-dihydropyrimidin-5-yl)methyl)-6-oxo-1,6-dihydropyrimidin-5-yl)oxy)-3,5-dimethylbenzonitrile]	267
Cc1nc(C)c(Cn2cnc(C(F)(F)C(F)F)c(Oc3c(C)cc(C#N)cc3Cl)c2=O)c(=O)[nH]1 [Example 98, 3-chloro-4-((1-((2,4-dimethyl-6-oxo-1,6-dihydropyrimidin-5-yl)methyl)-6-oxo-4-(1,1,2,2-tetrafluoroethyl)-1,6-dihydropyrimidin-5-yl)oxy)-5-methylbenzonitrile]	183

Same assay, conditions: read-out: TACK EC50

Molecule	EC50 [nM]
Cc1nc(C)c(Cn2cnc(C(C)F)c(Oc3cc(C(F)F)cc(C#N)c3C)c2=O)c(=O)[nH]1 (single isomer, unassigned) [Example 29]	312
3-((4-(1, 1-difluoroethyl)-1-((2,4- dimethyl-6-oxo-1,6-dihydropyrimidin- 5-y1)methyl)-6-oxo-1,6- dihydropyrimidin-5-yl)oxy)-2,4,5- trifluorobenzonitrile [Example 14]	343
